We go through two molecules from US9072695B2, “Aromatase activator” (Kao Corporation, priority 2011, dated 2015).

The target of this assay is T1, aromatase (Homo sapiens, UniProt P11511).
T1 construct: host or cells: human skin fibroblasts (HDF1616)
T1 sequence (P11511 1-503): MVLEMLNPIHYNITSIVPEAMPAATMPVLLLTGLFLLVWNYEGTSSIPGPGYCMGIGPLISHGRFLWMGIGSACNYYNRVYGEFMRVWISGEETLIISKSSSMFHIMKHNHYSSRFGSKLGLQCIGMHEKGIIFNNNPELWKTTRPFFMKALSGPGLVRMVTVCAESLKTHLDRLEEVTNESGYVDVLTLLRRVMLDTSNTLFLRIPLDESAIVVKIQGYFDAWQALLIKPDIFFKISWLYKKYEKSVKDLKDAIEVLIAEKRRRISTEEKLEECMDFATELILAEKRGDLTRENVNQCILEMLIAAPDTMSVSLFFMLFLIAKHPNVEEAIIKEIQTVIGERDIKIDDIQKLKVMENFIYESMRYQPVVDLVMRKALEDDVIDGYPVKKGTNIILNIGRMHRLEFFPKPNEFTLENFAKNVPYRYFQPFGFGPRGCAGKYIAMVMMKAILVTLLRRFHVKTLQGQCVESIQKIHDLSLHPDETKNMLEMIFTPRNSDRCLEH
Nature of the assay: Aromatase activation effect in fibroblasts derived from human skin (3H2O release from 1β-3H-androst-4-ene-3,17-dione). The assay is classed as cell-based. As to conditions: for Aromatase activity: fibroblasts (HDF1616) derived from human skin, amount added 4.65 × 10^−6 mol/L, control 6.85; for Aromatase activation effect (in words): fibroblasts derived from human skin, 4.65×10^−6 mol/L, compared with control (no addition). How it is done:
The aromatase activation effect of the compounds 1 and 2 prepared in Production Example 1 was examined with reference to Stampfer M J, Willett W C, Colditz G A, Rosner B, Speizer F E and Hennenkens C H, N. Engl. J. Med., 313, 1044-1049, 1985.
Fibroblasts (HDF1616: KURABO) derived from human skin were planted in a 24-well cell culture plate (FALCON) to culture until it became confluent. The medium was removed and 900 μL of a serum-free medium was added to the wells to culture for 24 hr. At this time, the compound 1 or 2 prepared using an aqueous 95% ethanol solution such that the final concentration was 4.65×10^−6 mol/L was added to the wells. Also, a sample in which an aqueous 95% ethanol solution was added and a sample (no addition) in which no material was added were prepared as controls.
1β-3H-androst-4-ene-3,17-dione (Perkin Elmer) which was the substrate of aromatase was added in the serum-free medium such that the concentration was 37 kBq/100 μL and added in an amount of 100 μL in each well to culture for 24 hr. 900 μL of the culture product was taken, in a 2 mL tube from one well and 1 mL of CHCl3 was added to the cultured product, which was then stirred vigorously. The cultured product was centrifuged at 15,000 rpm for 10 min to transfer the upper layer (water layer) to another tube. 200 μL of Charcoal/Dextran (which is one obtained by suspending 5 g of Charcoal, dextran coated (SIGMA) in 50 mL of H2O) was added to the upper layer, which was fairly mixed and then allowed to stand at ambient temperature for 30 min. The mixture was centrifuged at 15,000 rpm for 10 min and the supernatant was transferred to a new tube. 1 mL of […] was added to the supernatant, which was then vigorously stirred and centrifuged at 15,000 rpm for 10 min and the upper layer (water layer) was added to 5 mL of Ultima Gold (Perkin Elmer) to measure the radioactivity of ^3H by a liquid scintillation counter (Perkin Elmer Tricarb 2550). The same serum-free medium containing no cell was incubated for the same hours without adding a drug, followed by the same procedures to measure the radioactivity of ^3H and the radioactivity was subtracted from the above measured radioactivity.
1β-3H-androst-4-ene-3,17-dione releases ^3H2O by an aromatase reaction and is converted into estrogen having no radioactivity. In this experimental method, the radioactivity of released ^3H2O is detected, showing that the higher the radioactivity is, the higher the aromatase activity is.

In the case of `CC1=CC[C@H](C)C(C)(C)[C@@H]1CC/C(C)=C/CC[C@@]1(C)[C@H](CCCO)/C(=C(/C)C=O)CC[C@]1(C)O` [Compound 1], the Aromatase activity was 21.68 fmol/day/well and the “Aromatase activation effect (in words)” value was “activated aromatase existing in cells”.

With `C=C1CC[C@H](C)C(C)(C)[C@@H]1CC/C(C)=C/CC[C@@]1(C)[C@H](CCCO)/C(=C(/C)C=O)CC[C@]1(C)O` [Compound 2], the Aromatase activity was 22.34 fmol/day/well and the “Aromatase activation effect (in words)” value was “activated aromatase existing in cells”.
